Source: paper PMC9511441, “Semisynthetic teicoplanin derivatives with dual antimicrobial activity against SARS-CoV-2 and multiresistant bacteria” (Scientific Reports, 2022)
Read-outs that look alike come from different tables or passages of the source.

Assays:
S.pyogenes = assay: MIC, broth microdilution; assay type: cell-based; conditions: Streptococcus pyogenes
Text: (§1) We determined the minimal inhibitory concentrations (MIC) of the teicoplanin conjugates for a large panel of Gram-positive bacterial strains, using vancomycin, unmodified teicoplanin, dalbavancin and oritavancin as reference compounds. […] The bacterial strains (see Suppl. Table S5 for all details) were selected to achieve maximum diversity of multidrug-resistance and include strains with known mechanisms of resistance to glycopeptides in clinical use. The S. epidermidis and S. haemolyticus strains resistant to dalbavancin and oritavancin were obtained in vitro from clinical isolates sensitive to the glycopeptide antibiotics.

S. aureus = assay: MIC, broth microdilution; assay type: cell-based; conditions: Staphylococcus aureus
Text: as §1

E. faecalis = assay: MIC, broth microdilution; assay type: cell-based; conditions: Enterococcus faecalis
Text: as §1

S. haemolyticus = assay: MIC, broth microdilution; assay type: cell-based; conditions: Staphylococcus haemolyticus
Text: as §1

E. faecium = assay: microbe, parasite or virus in culture; assay type: cell-based; conditions: Enterococcus faecium
Text: as §1

S. epidermidis = assay: microbe, parasite or virus in culture; assay type: cell-based; conditions: Staphylococcus epidermidis
Text: as §1

S. aureus ATCC29213 = assay: Fluorescent competition assay, release of fluorescent vancomycin; conditions: cells saturated with FL-VAN, Fig. 7 left panel
[1] = Cytotoxicity in mock-infected HEL cells (MTS); assay type: cell-based, human; conditions: human
HCoV-229E = assay: CPE reduction assay, HCoV-229E in HEL cells; assay type: cell-based; conditions: Human coronavirus 229E, MTS, mean of 2–3 tests
SARS-CoV-2 [2] = assay: microbe, parasite or virus in culture; assay type: cell-based; conditions: Severe acute respiratory syndrome coronavirus 2, 72 h; Calu-3 cells, three days, XTT; read-out: EC50, CPE reduction, SARS-CoV-2 in Calu-3 cells
[3] = Cytotoxicity in mock-infected VeroE6 cells (XTT); assay type: cell-based, African green monkey; conditions: African green monkey; mock-infected Vero E6 cells, three days, XTT
in vitro = conditions: human
SARS-CoV-2 [4] = assay: microbe, parasite or virus in culture; assay type: cell-based; conditions: Severe acute respiratory syndrome coronavirus 2, Vero C1008, 72 h; Vero E6 cells, three days, XTT; read-out: EC50, CPE reduction, SARS-CoV-2 in Vero E6 cells

CN[C@H](CC(C)C)C(=O)N[C@H]1C(=O)N[C@@H](CC(N)=O)C(=O)N[C@H]2C(=O)N[C@H]3C(=O)N[C@H](C(=O)N[C@H](C(=O)O)c4cc(O)cc(O)c4-c4cc3ccc4O)[C@H](O[C@H]3C[C@](C)(N)[C@@H](O)[C@H](C)O3)c3ccc(c(Cl)c3)Oc3cc2cc(c3O[C@@H]2O[C@H](CO)[C@@H](O)[C@H](O)[C@H]2O[C@H]2C[C@](C)(NCc3ccc(-c4ccc(Cl)cc4)cc3)[C@@H](O)[C@H](C)O2)Oc2ccc(cc2Cl)[C@H]1O [ORI, oritavancin, reference compound]
0.5 µg/mL: MIC (S. haemolyticus; S.haemolyticus ORI_R1, mecA, read-out: MIC value) | MIC (S. epidermidis; read-out: MIC value, S.epidermidis ORI_R2, mecA) | MIC (S. epidermidis; read-out: MIC value, S.epidermidis ORI_R4, mecA)
1.2 µg/mL: MIC (S. epidermidis; read-out: Average MIC value, S. epidermidis mecA, 6 strains)
0.14 µg/mL: MIC (S. aureus; MRSA, read-out: Average MIC value, S. aureus MRSA, 7 strains)
4 µg/mL: MIC (S. epidermidis; read-out: MIC value, S.epidermidis ORI_R1, mecA)
0.12 µg/mL: MIC (E. faecium; read-out: Average MIC value, E. faecium VAN^R,TEI^R/VanA, 8 strains)
less pronounced: Outcompeting fluorescent vancomycin from S. aureus (in words) (S. aureus ATCC29213)
0.078 µg/mL: MIC (S. aureus; MSSA, read-out: Average MIC value, S. aureus MSSA, 4 strains)
2 µg/mL: MIC (S. epidermidis; read-out: MIC value, S.epidermidis ORI_R3, mecA)
0.24 µg/mL: MIC (S. haemolyticus; S. haemolyticus mecA, 6 strains, read-out: Average MIC value)
0.0625 µg/mL: MIC (S.pyogenes; read-out: MIC value, S.pyogenes H550) | MIC (S.pyogenes; read-out: MIC value, S.pyogenes H578) | MIC (S. aureus; MRSA / USA300, read-out: MIC value, S. aureus USA300, CA-MRSA) | MIC (S. aureus; MRSA, read-out: Average MIC value, S. aureus CA-MRSA, 1 strain) | MIC (S. aureus; MSSA / NEWMAN, read-out: MIC value, S. aureus Newman, MSSA) | MIC (S. aureus; MSSA, read-out: MIC value, S. aureus MSSA476, MSSA) | MIC (S. aureus; MSSA, read-out: MIC value, S. aureus SA564, MSSA) | MIC (E. faecalis; read-out: Average MIC value, E. faecalis VAN^S, TEI^S, 2 strains) | MIC (E. faecalis; read-out: MIC value, E.faecalis JH2-2) | MIC (E. faecalis; read-out: MIC value, E.faecalis OG1RF) | MIC (S. haemolyticus; S.haemolyticus DALB_R4, mecA, read-out: MIC value) | MIC (E. faecium; read-out: Average MIC value, E. faecium VAN^S, TEI^S, 1 strain) | MIC (E. faecium; read-out: MIC value, E.faecium E355, VAN,TEI,LNZ/VanA) | MIC (E. faecium; read-out: MIC value, E.faecium E854, VAN,TEI,LNZ/VanA) | MIC (E. faecium; read-out: MIC value, E.faecium E859, VAN,TEI,LNZ/VanA) | MIC (E. faecium; read-out: MIC value, E.faecium TX0016)
0.25 µg/mL: MIC (S. aureus; MRSA, read-out: MIC value, S. aureus Mu50, MRSA) | MIC (S. haemolyticus; S.haemolyticus DALB_R1, mecA, read-out: MIC value) | MIC (S. haemolyticus; S.haemolyticus DALB_R2, mecA, read-out: MIC value) | MIC (S. haemolyticus; S.haemolyticus DALB_R3, mecA, read-out: MIC value) | MIC (E. faecium; read-out: MIC value, E.faecium E1114, VAN,TEI,LNZ/VanA)
0.125 µg/mL: MIC (S.pyogenes; read-out: MIC value, S.pyogenes H232) | MIC (S. aureus; ATCC 29213 / MSSA, read-out: MIC value, S. aureus ATCC29213, MSSA) | MIC (S. aureus; MRSA, read-out: MIC value, S. aureus 73OL, MRSA) | MIC (S. aureus; MRSA, read-out: MIC value, S. aureus 214OL, MRSA) | MIC (S. aureus; MRSA, read-out: MIC value, S. aureus 1041OL, MRSA) | MIC (S. aureus; MRSA, read-out: MIC value, S. aureus A6918, MRSA) | MIC (S. aureus; MRSA, read-out: MIC value, S. aureus A6919, MRSA) | MIC (S. aureus; MRSA, read-out: MIC value, S. aureus N315, MRSA) | MIC (E. faecalis; read-out: Average MIC value, E. faecalis VAN^R,TEI^R/VanA, 1 strain) | MIC (E. faecalis; read-out: MIC value, E.faecalis V583, VAN,TEI/VanA) | MIC (S. haemolyticus; S.haemolyticus DALB_R5, mecA, read-out: MIC value) | MIC (E. faecium; read-out: MIC value, E.faecium E335, VAN,TEI,LNZ/VanA) | MIC (E. faecium; read-out: MIC value, E.faecium E832, VAN,TEI,LNZ/VanA) | MIC (E. faecium; read-out: MIC value, E.faecium E1131, VAN,TEI,LNZ/VanA) | MIC (E. faecium; read-out: MIC value, E.faecium E1132, VAN,TEI,LNZ/VanA) | MIC (S. epidermidis; read-out: MIC value, S.epidermidis TEI_R1, mecA) | MIC (S. epidermidis; read-out: MIC value, S.epidermidis TEI_R2, mecA)

N#C[C@@]1(c2ccc3c(N)ncnn23)O[C@H](CO)[C@@H](O)[C@H]1O [GS-441524, reference compound]
3000 nM: EC50 (HCoV-229E)
> 40000 nM: CC50 at 5 days [1]

CCC(CC)COC(=O)[C@H](C)N[P@](=O)(OC[C@H]1O[C@@](C#N)(c2ccc3c(N)ncnn23)[C@H](O)[C@@H]1O)Oc1ccccc1 [Remdesivir, remdesivir, reference compound]
> 50000 nM: CC50 (in vitro)
> 100000 nM: CC50 [3]
2500 ± 200 nM: EC50 (SARS-CoV-2 [4])
300 ± 30 nM: EC50 (SARS-CoV-2 [2])
